According to publication PMC2225441, “Partial Restoration of Mutant Enzyme Homeostasis in Three Distinct Lysosomal Storage Disease Cell Lines by Altering Calcium Homeostasis” (PLoS Biology, 2008):

How the values were obtained:
L444P GC = assay: intact cell GC activity assay in homozygous L444P GC patient-derived fibroblasts; format: cell-based, human
N370S/84GG GC = assay: GC activity in compound heterozygous N370S/84GG GC fibroblasts; format: cell-based, human; settings: 10 μM; 5-d treatment
GC mRNA = format: cell-based, human; settings: 10 μM; 6 h, 12 h, 1 d, 3 d, and 5 d
Experimental: (§1) Total RNA was extracted from the cells using RNeasy Mini Kit (Qiagen #74104). cDNA was synthesized from 500 ng of total RNA using QuantiTect Reverse Transcription Kit (Qiagen #205311). Quantitative PCR reactions were performed using QuantiTect SYBR Green PCR Kit (Qiagen #204143) and corresponding primers in the ABI PRISM 7900 system (Applied Biosystems). The forward and reverse primers for GC, Hsp40, Hsp70, Hsp90, HIP, HOP, BiP, GRP94, calnexin (CNX), and calreticulin (CRT), and an endogenous housekeeping gene large ribosomal protein (RiboP) are listed in Table S1. Samples were heated for 15 min at 95 °C and amplified in 45 cycles of 15 s at 94 °C, 30 s at 59 °C, and 30 s at 72 °C. Analysis was done using SDS2.1 software (Applied Biosystems). Threshold cycle (CT) was extracted from the PCR amplification plot. The ΔCT value was used to describe the difference between the CT of a target gene and the CT of the housekeeping gene: ΔCT = CT (target gene) – CT (housekeeping gene). The relative mRNA expression level of a target gene of diltiazem-treated cells was normalized to that of untreated cells: Relative mRNA expression level = 2 exp [–(ΔCT (treated cells) – ΔCT (untreated cells))].

[1] = system: cytoplasmic and ER lumenal chaperones; assay: quantitative RT-PCR of chaperones in L444P GC fibroblasts; format: cell-based, human; settings: 10 μM; 7-d treatment
Experimental: as §1

[2] = system: cytoplasmic and ER lumenal chaperones; assay: Western blot of chaperones in L444P GC fibroblasts; format: cell-based, human; settings: 10 μM
Experimental: Total cell protein was measured using the Micro BCA assay reagent. Endo H (New England Biolabs #P0703) was used to digest the cell lysates according to the company instructions. The cell lysates containing equal amount of total protein were separated by 10% SDS-PAGE. Western blot analysis was performed with proper antibodies. Mouse monoclonal anti-GC 8E4 [57] was kindly provided by Klaus-Peter Zimmer (Children's Hospital of the University of Münster, Münster, Germany). Mouse monoclonal anti-GC 2E2 was from Novus Biologicals (#H00002629-M01). Antibodies directed against calnexin (#SPA-860), calreticulin (#SPA-601), Hsp40 (#SPA-400), Hsp70 (#SPA-812), and Hsp90 (#SPA-830) were from Stressgen. Antibodies directed against BiP (#SC-13968) and GRP94 (#SC-11402) were from Santa Cruz Biotechnology. Mouse monoclonal anti-β actin AC-15 was from Sigma (#A1978). Secondary antibodies (#31430 for goat anti-mouse and #31460 for goat anti-rabbit) were from Pierce. Bands were visualized using the SuperSignal West Pico Chemiluminescent Substrate (Pierce #34078) or SuperSignal West Femto Maximum Sensitivity Substrate (Pierce #34095).

S66W/V131M SGSH = assay: intact cell SGSH activity assay in S66W/V131M MPS cells; format: cell-based, human; settings: 50 μM; 5-d treatment; calculated from literature specific activity of S66W [27]
GC = GC activity in Gaucher patient-derived fibroblasts, effective culture concentration; format: cell-based, human
Experimental: The intact cell GC activity assay has been previously described. Briefly, cells were plated into 48-well assay plates (500 μl per well). After cell attachment, the media was replaced by media containing small molecules. Media was changed every 3 d. After incubation at 37 °C for the indicated amount of time, the intact cell GC activity assay was performed. The monolayers were washed by DPBS. The reaction was started by the addition of 150 μl of 3 mM 4-methylumbelliferyl β-D-glucopyranoside in 0.2 M acetate buffer (pH 4.0) to each well, followed by incubation at 37 °C for 1–7 h. CBE was used as a control to evaluate the extent of nonspecific GC activity. […] Liberated 4-methylumbelliferone was measured (excitation 365 nm, emission 445 nm) with a SpectraMax Gemini plate reader (Molecular Devices). The lysed cell GC activity assay has been previously described. […] Total cell protein was measured using the Micro BCA assay reagent (Pierce #23235). Thirty μg of total cell protein was assayed for the GC activity in 100 μl of 0.1 M acetate buffer (pH 5.0) containing 3 mM 4-methylumbelliferyl β-D-glucopyranoside in the presence of 0.15% Triton X-100 (v/v, Fisher) and 0.15% taurodeoxycholate (w/v, Calbiochem). CBE was used as a control to evaluate the extent of nonspecific GC activity. […] The GC activity assay for recombinant WT GC enzymes has been previously described. […]

[3] = cited from earlier work
[4] = system: α-mannosidase, α-glucosidase, β-galactosidase, α-galactosidase, and β-glucuronidase; assay: cellular activity of other WT lysosomal hydrolases in WT and L444P GC fibroblasts; settings: 10 μM, 5 d, Figure S2

## COc1ccc([C@@H]2Sc3ccccc3N(CCN(C)C)C(=O)[C@@H]2OC(C)=O)cc1 [diltiazem]
L444P GC; 10 μM, 7 d, intact cell assay, Figure 3D
  maximum increase of L444P lysosomal GC activity: 2.3 fold
L444P GC; 1–100 μM, 1 h, intact cell assay, Figure S3
  L444P GC activity after short incubation: No activity increase was observed
L444P GC; additional type II cell line (Figure 1C middle panel), 15 μM, 5 d
  increase of L444P GC activity: 2.0 fold
L444P GC; additional type II cell line (Figure 1C middle panel), 15 μM, 7 d
  increase of L444P GC activity: 2.5 fold
L444P GC; intact cell GC activity assay, only the named compounds increased activity
  L444P GC activity, screen of VGCC blockers, ionotropic glutamate receptor inhibitors and other calcium channel blockers: increased L444P GC activity significantly
L444P GC; type II patient cell line (Figure 1C left panel), 10 μM, 5-d incubation
  L444P GC activity as % of normal cellular WT GC activity: ≈ 24%
L444P GC; type II patient cell line (Figure 1C left panel), 10 μM, 5-d incubation, vs untreated cells
  maximum increase of L444P GC activity: 2.0 fold
L444P GC; type II patient cell line (Figure 1C left panel), 10 μM, 7-d incubation
  maximum increase of L444P GC activity: 2.3 fold
L444P GC; type III cell line (Figure 1C right panel), 10 μM, 5-d incubation
  maximum increase of L444P GC activity: 2.1 fold
L444P GC; type III cell line (Figure 1C right panel), 10 μM, 7-d incubation
  increase of L444P GC activity: 2.3 fold
N370S/84GG GC
  N370S/84GG GC activity as % of cellular WT GC activity: ≈ 36%
GC mRNA
  GC mRNA expression level vs untreated: Strictly analogous results
[1]
  BiP mRNA expression level vs untreated: 1.8 fold
  Hsp40 mRNA expression level vs untreated: 1.8 fold
  Hsp90 mRNA expression level vs untreated: 1.9 fold
  mRNA expression levels of Hsp70, GRP94, calnexin, and calreticulin: not changed significantly
[2]; 7-d treatment
  protein expression levels of BiP, Hsp40, and Hsp90: increased protein expression levels
[2]; 4 d and 7 d
  protein expression levels of GRP94, Hsp70, calnexin, and calreticulin: not changed significantly
S66W/V131M SGSH
  S66W/V131M sulfamidase activity as % of WT sulfamidase activity: ≈ 30%
GC
  culture concentration of best efficacy at increasing GC activity: 10 µM
GC; Figures 2 and 3
  lowest effective cell culture media concentration: 0.1 to 1 µM
[3]
  bioavailable concentration in blood plasma: bioavailable in the μM concentration range
[4]
  activity of other WT lysosomal enzymes: did not significantly increase
